Usually EC50 stands for the concentration at which the effect is half-maximal. Higher therefore signals lower potency in that assay.

One data set concerns P. aeruginosa (26314). Format: cell-based, Pseudomonas aeruginosa. An outline of the steps: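 Canine clinical isolate P. aeruginosa 26314 tested by CLSI broth microdilution at 5 × 10^5 CFU/mL in Mueller Hinton broth II against 2-fold peptide dilutions of 1-64 μg/ml. MIC = lowest concentration without visible growth after 18 h at 37 °C; triplicates on two days.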
A further data set relates to E. coli, 30235. It is filed as cell-based, Escherichia coli. The note with it: 30235, 18 h. The source says: For antibacterial spectrum the following strains were used: Corynebacterium auriscanis, 31551, (54 C6, dog, ear, 2013); Enterococcus faecalis, 27404, (17 C7, dog, wound, 2011); Enterococcus faecium, 30951, (24 C1, dog, ear, 2013); Streptococcus canis, 26740-1, (14 H1, dog, ear, 2010); Staphylococcus aureus, 27266, (16 G9, dog, skin, 2010); Staphylococcus aureus, 27266, (16 G9, dog, skin, 2010); Staphylococcus pseudintermedius 22963, (3 B9, dog, 2007). Acinetobacter baumannii, 27065, (16 D1, dog, wound, 2010); E. coli, 30235, 23 A6, dog, wound, 2012; Klebsiella pneumoniae, 26233, (11 H5, dog, wound, 2010); Pasteurella canis, 31096, (24 C8, dog, skin, 2013); Proteus mirabilis, 25178, (9 A4, dog, ear, 2009); Pseudomonas aeruginosa 26314, 12 C5, dog, urine, 2010). MIC determination was performed by broth microdilution according to the Clinical and Laboratory Standard Institute (CLSI, […]-A3, 2008)[62]. In brief, each bacterial strain was diluted to concentration of 5 × 10^5 CFU/mL in Mueller Hinton broth II (MHB II) media (Oxoid) and added to a two-fold serial dilution of peptides and peptide-peptoid hybrids concentrations ranging from 1 to 64 μg/ml in 96-well plates (Nunc Internationals, Rochester, NY). The MICs were determined as a lowest concentration showing no visible growth after incubation for 18 hours at 37 °C. Experiments were performed in triplicates on two different days.

The next data set has as its system human red blood cells. Format: cell-based. Conditions: for EC50: red cells of human, 1 h.
The format of data set [1] is cell-based, human. The note with it: human.
For another data set, the system named is P. aeruginosa 26314. The data set can be described thus: Time-kill kinetics, P. aeruginosa 26314. It is filed as cell-based, Pseudomonas aeruginosa. As to the method:
Time kill assays were performed in triplicate, meaning that every value is the average of three different samplings. Time–kill kinetic assays were performed using P. aeruginosa (26314), MRSP E104 and/or MRSP C22963 to determine the cell killing activity of B1 and two of its most promising analogues (compounds 23 and 26) based on prior antimicrobial susceptibility testing. The method reported by Blondeau et al.[63] was followed with minor modifications. […] After 0, 15, 30, 60, 120, 180 and 300 min of growth, 100 μL aliquots were collected and 10-fold serially diluted. Twenty μL of cell suspension from each dilution were spotted in triplicate on blood agar plates followed by 16–18 h incubation at 37 °C and determination of colony forming units (CFU).

A further data set concerns MRSP C22963. The data set can be described thus: Time-kill kinetics, MRSP C22963. Format: cell-based, Staphylococcus pseudintermedius. The note with it: for time to complete killing of the MRSP strain: all tested concentrations at or above the MIC. The method, then: Time kill assays were performed in triplicate, meaning that every value is the average of three different samplings. Time–kill kinetic assays were performed using P. aeruginosa (26314), MRSP E104 and/or MRSP C22963 to determine the cell killing activity of B1 and two of its most promising analogues (compounds 23 and 26) based on prior antimicrobial susceptibility testing. The method reported by Blondeau et al.[63] was followed with minor modifications. Briefly, the assay was performed in MHB II with concentrations corresponding to 0.5, 1, 2 and 4 times the MIC of the strain. After 0, 15, 30, 60, 120, 180 and 300 min of growth, 100 μL aliquots were collected and 10-fold serially diluted. Twenty μL of cell suspension from each dilution were spotted in triplicate on blood agar plates followed by 16–18 h incubation at 37 °C and determination of colony forming units (CFU).

≈ marks a conversion by molar mass, not a printed value. Entries after “also recorded” stand apart in the source; their conditions may differ. Where two headings read alike, the source gives them in different places. Square brackets hold non-standard residues; d marks the D form. Peptide text beside a SMILES is read from it. N(1-naphthylmethyl)Gly = O=C(O)CNCc1cccc2ccccc12; 2Nal = N[C@@H](Cc1ccc2ccccc2c1)C(=O)O; d1Nal = N[C@H](Cc1cccc2ccccc12)C(=O)O; N(4-MeBn)Gly = Cc1ccc(CNCC(=O)O)cc1; dNle = CCCC[C@@H](N)C(=O)O; Nle = CCCC[C@H](N)C(=O)O; NBuGly = CCCCNCC(=O)O A value given as a limit tells only on which side of the number the result lay.

As for `CCCCN(CC(=O)N[C@@H](CCCCN)C(=O)N(CC(=O)N(CC(=O)N(CC(N)=O)Cc1cccc2ccccc12)Cc1ccc(C)cc1)Cc1cccc2ccccc12)C(=O)[C@H](CCCCN)NC(=O)[C@@H](N)CCCCN` [B1, Lys-Lys-(NBu)Gly-Lys-(N1-Nal)Gly-(N4-MeBn)Gly-(N1-Nal)Gly] (H-KK[NBuGly]K[N(1-naphthylmethyl)Gly][N(4-MeBn)Gly][N(1-naphthylmethyl)Gly]-NH2), the “Minimum Inhibitory Concentration P. aeruginosa (26314)” value with P. aeruginosa (26314) (26314, 18 h) was in the range of 8 to 16 µg/mL. Besides, the “MIC E. coli” value against E. coli, 30235 is recorded as 64 µg/mL (≈ 59.8 µM). In the data set with human red blood cells, the “Haemolysis EC10” value was 64 µM and the EC50 was 230 µM. Further, the hemolysis at 1 h, 150 µM in data set [1] was found to be 32%. Further, the “killing of P. aeruginosa 26314” value in the data set with P. aeruginosa 26314 (1x MIC, delayed re-growth) is given as “did not eliminate”. Besides, in the data set on P. aeruginosa 26314 (2x MIC), the “time to kill P. aeruginosa 26314” value was 24 h. For the same compound, the “time to kill P. aeruginosa 26314” value in the data set with P. aeruginosa 26314 (4x MIC) is 2 h. Besides, in the data set on P. aeruginosa 26314 (8 x MIC), the “time to kill P. aeruginosa” value is given as “less than 30 min”.
For `CCCC[C@@H](NC(=O)[C@H](CCCCN)NC(=O)[C@H](CCCCN)NC(=O)[C@@H](N)CCCCN)C(=O)N[C@H](Cc1cccc2ccccc12)C(=O)N[C@H](Cc1ccccc1)C(=O)N[C@H](Cc1cccc2ccccc12)C(N)=O` [Compound 26, Lys-Lys-Lys-nle-(1-Nal)ala-phe-(1-Nal)ala] (H-KKK[dNle][d1Nal][dF][d1Nal]-NH2; N-terminus assumed), the “Minimum Inhibitory Concentration P. aeruginosa (26314)” value with P. aeruginosa (26314) (Table 1) amounted to 8 µg/mL. For the same compound, the “MIC E. coli” value against E. coli, 30235 was found to be 32 µg/mL (≈ 30.3 µM). The compound further gave an EC50 in the data set on human red blood cells of 63 µM. The hemolysis at 1 h, 150 µM in data set [1] was 56%. Further, in the data set on MRSP C22963 (0.5x MIC), the “time to complete killing of MRSP C22963” value is given as ≤ 1 h. In addition, the “time to complete killing of the MRSP strain” value in the data set on MRSP C22963 is listed as ≤ 2 h.
As to `CCCC[C@H](NC(=O)[C@H](CCCCN)NC(=O)[C@H](CCCCN)NC(=O)[C@@H](N)CCCCN)C(=O)N[C@@H](Cc1ccc2ccccc2c1)C(=O)N[C@@H](Cc1ccccc1)C(=O)N[C@@H](Cc1ccc2ccccc2c1)C(N)=O` [Compound 23, Lys-Lys-Lys-Nle-(2-Nal)Ala-Phe-(2-Nal)Ala] (H-KKK[Nle][2Nal]F[2Nal]-NH2), in the data set with P. aeruginosa (26314) (Table 1), the “Minimum Inhibitory Concentration P. aeruginosa (26314)” value turned out to be 8 µg/mL. The “MIC E. coli” value in the data set on E. coli, 30235 was 32 µg/mL (≈ 30.3 µM). Besides, in the data set with human red blood cells, the “Haemolysis EC10” value is given as 14 µM and the EC50 was found to be 104 µM. The hemolysis at 1 h, 150 µM in data set [1] was 59%. In the data set on MRSP C22963, the “time to complete killing of the MRSP strain” value is reported as ≤ 2 h. In addition, the “complete killing of P. aeruginosa” value in the data set on P. aeruginosa 26314 (up to highest tested concentration (8x MIC)) was “not able to completely kill; also recorded: not able to eliminate”.

(Values after PMC6403271, “Characterization, mechanism of action and optimization of activity of a novel peptide-peptoid hybrid against bacterial pathogens involved in canine skin infections” (Scientific Reports, 2019).)
